From EP1157694A1, “REMEDIAL AGENT FOR ERECTILE DYSFUNCTION” (Nissan Chemical Industries, Ltd., priority 1998, dated 2000)
Structures can show the parent of a compound that is named as a salt.

Tests used:
[1] = tested on: isolated corpus cavernosum of rabbit; experiment: Relaxation on norepinephrine-induced contraction in isolated corpus cavernosum of rabbit; conditions: for attenuation of action by pre-treatment with L-NAME: L-NAME (1 mmol/L); for IC50: Oryctolagus cuniculus
Description: (§1) Rabbits were sacrificed by venesection following severing of the carotid artery under sodium pentobarbital anesthesia. The penis was immediately isolated and transferred into Krebs-Henseleit solution (composition (mmol/L): NaCl 118.4, KCl 4.7, CaCl2 2.5, MgSO4 1.2, KH2PO4 1.2, NaHCO3 25.0, glucose 11.1), which was adequately aerated with a 95% O2/5% CO2. After cutting away the connective tissue, the penis was severed longitudinally into two sections so that half of the urethra was present in each section by using an extension of the midline as the boundary. Each preparation was suspended from an FD pickup (TB-611T, Nihon Koden) at a resting tension of 0.5 g (about 5 mN) for the load in a nutrient solution consisting of 20 ml of organ bath maintained at 37°C. Contraction was recorded as the isometric contraction on a thermal pen writing recorder (WT-685G, Nihon Koden) following amplification by a carrier amplifier (AP-621G, Nihon Koden). After replacing the nutrient solution twice every 20 minutes and allowing to equilibrate, reactivity was confirmed for each preparation by observing the contraction to 1 µmol/L of norepinephrine. After contraction stabilized, the preparation was washed by replacing the nutrient solution, after which the solution was additionally replaced twice every 20 minutes and acceptable to equilibrate.
To begin with, each preparation was contracted by norepinephrine (final concentration: 1 µmol/L). The preparation for which stable tension was obtained at this time was used in the experiment. Each drug was administered cumulatively in 10-fold ratios followed by observation of the reaction. The maximum relaxation reaction was determined by application of papaverine hydrochloride (final concentration: 100 µmol/L).
The inhibition rate at each concentration was calculated by taking the tension during addition of norepinephrine to represent an inhibition rate of 0%, and the tension during the maximum relaxation reaction induced by addition of papaverine hydrochloride to represent an inhibition rate of 100%, followed by calculation of the concentration value at which the inhibition rate was 50% (IC50).

[2] = Activity on intracavernous pressure by intracavernous injection to anesthetized dogs; format: in vivo
Procedure: Male beagle dogs having body weights of about 10 kg were anesthetized by intravenous administration of sodium pentobarbital at 35 mg/kg followed by immobilizing the animals in the dorsal position on a heating mat (SMS-2000J, Medical System Inc.) and inserting a. cannula into the trachea. A 23G winged needle for measuring internal pressure was inserted into the right corpus cavernosum, and intracavernous pressure was measured with a blood pressure measurement amplifier (AP-641G, Nihon Koden) by means of a pressure transducer (Statham P-50, Gould Co.). Moreover, a 23G winged needle for administration of drug was inserted into the right corpus cavernosum of the base followed by intracavernous injection of sodium nitroprusside (SNP, 10^-4 or 10^-3 mol/L, 0.5 ml) followed by administration of drug at the stage an increase in intracavernous pressure was confirmed. It should be noted that Compound A and milrinone were prepared with dimethyl sulfoxide-ethanol-physiological saline (1:2:30). […]
The activity of Compound A was assessed directly by administering at a volume of 0.5 ml starting from the lowest dose level at 0.243, 0.729, 2.43, 7.29, 24.3 and 72.9 µg/body (10^-6, 3 × 10^-6, 10^-5, 3 × 10^-5, 10^-4 and 3 × 10^-4 mol/L).
The effect of milrinone and zaprinast was assessed by concomitant administration of milrinone at 106 µg/body (10^-3 mol/L) and zaprinast at 136 µg/body (10^-3 mol/L) using a dosing volume of 0.5 ml each.
Intracavernous pressure was input into a polygraph (RM-6000, Nihon Koden), and together with continuously recording on a thermal pen recorder, was recorded and sampled on an external storage device (hard disk) of a computer (Macintosh Performa 5260, Apple) by means of a circulation kinetics analysis system (MP100WS, BIOPAC System) using circulation kinetics analysis software (MP/VAS 3 Ver. 1.0 beta 4.2, Physio-Tech Co., Ltd.). Maximum rate of change, duration and area under the curve (AUC) of intracavernous pressure were calculated using the circulation kinetics analysis software based on the resulting data. […]

[3] = tested on: isolated thoracic aorta of rabbit; experiment: Relaxation on norepinephrine-induced contraction in isolated thoracic aorta of rabbit; conditions: for IC50: Oryctolagus cuniculus
Description: as §1, with “equilibrate. To begin with, each preparation was contracted by norepinephrine (final concentration: 1 µmol/L). The preparation for which stable tension was obtained at this time was used in the experiment. Each drug was administered cumulatively in 10-fold ratios followed by observation of the reaction. The maximum relaxation reaction was determined by application of papaverine hydrochloride (final concentration: 100 µmol/L). The inhibition rate at each concentration was calculated by taking the tension during addition of norepinephrine to represent an inhibition rate of 0%, and the tension during the maximum relaxation reaction induced by addition of papaverine hydrochloride to represent an inhibition rate of 100%, followed by calculation of the concentration value at which the inhibition rate was 50% (IC50). The procedure was performed in the same manner as Experimental Example 2 with the exception of isolating the thoracic aorta and preparing in the form of a […] strip, and using 1 g (about 10 mN) of resting tension for the load.” for “equilibrate.”

right atrium preparation = experiment: Action on isolated cardiac muscle of guinea-pig: number of beats of right atrium preparation; conditions: for action on the heart relative to the action on the corpus cavernosum: EC30 heart compared with IC50 corpus cavernosum of Experimental example 2; for EC30 Heart rate: number of beats, 30% of isoproterenol maximum reaction
Procedure: After sacrificing male Hartley guinea-pigs by venesection, the heart was isolated and transferred to Krebs-Henseleit solution was adequately aerated with a 95% O2/5% CO2. After promptly separating the heart into the atria and ventricles, a papillary muscle preparation from the right ventricle and a right atrium preparation were prepared. Each preparation was suspended from an FD pickup (TB-611T, Nihon Koden) at a resting tension of 0.5 g (about 5 mN) for the load in a nutrient solution consisting of organ bath maintained at 31°C. Automatic contraction of the right atrium amplified by a carrier amplifier (AP-600G, Nihon Koden) followed by recording tension and the number of beats on a recorded by means of an instantaneous heart rate counter (AT600G, Nihon Koden). For the papillary muscle, a rectangular wave electrical stimulus was applied by an electrical stimulator (SEN-3201, Nihon Koden) through bipolar platinum electrodes followed by amplification of the resulting tension by a carrier amplifier (AP-600G, Nihon Koden) and recording on a recorder. The right atrium preparations were equilibrated by replacing the nutrient solution twice every 20 minutes followed by confirmation of the reactivity of each preparation by observing the number of beats in the presence of 0.1 µmol/L of isoproterenol. After the number of beats had stabilized, the preparations were washed by replacing the nutrient solution and additionally equilibrated by replacing the nutrient solution twice every 20 minutes. Each drug was administered cumulatively followed by observing the reaction. Drug action was evaluated by determining the rate of change caused by the drug by taking the difference between the maximum reaction induced by isoproterenol and that before drug administration to be 100%, and then calculating the EC30 value as the concentration at which drug action was 30% with respect to the number of beats based on this rate of change.

[4] = tested on: papillary muscle preparation from the right ventricle; experiment: Action on isolated cardiac muscle of guinea-pig: force of contraction of papillary muscle preparation; conditions: 30% of isoproterenol maximum reaction
Procedure: After sacrificing male Hartley guinea-pigs by venesection, the heart was isolated and transferred to Krebs-Henseleit solution was adequately aerated with a 95% O2/5% CO2. After promptly separating the heart into the atria and ventricles, a papillary muscle preparation from the right ventricle and a right atrium preparation were prepared. Each preparation was suspended from an FD pickup (TB-611T, Nihon Koden) at a resting tension of 0.5 g (about 5 mN) for the load in a nutrient solution consisting of organ bath maintained at 31°C. Automatic contraction of the right atrium amplified by a carrier amplifier (AP-600G, Nihon Koden) followed by recording tension and the number of beats on a recorded by means of an instantaneous heart rate counter (AT600G, Nihon Koden). […] Drug action was evaluated by determining the rate of change caused by the drug by taking the difference between the maximum reaction induced by the second administration of isoproterenol and that before drug administration to be 100%, and then calculating the EC30 value as the concentration at which drug action was 30% with respect to force of contraction based on this rate of change.

[5] = direct relaxation, norepinephrine 1 µmol/L contraction
[6] = pre-treatment with L-NAME (1 mmol/L)
[7] = intracavernous injection, Dunnett's test vs solvent group

With `CCCOc1ccccc1-c1nc2nn[nH]c2c(=O)[nH]1` [Zaprinast, zaprinast, reference compound] the “attenuation of action by pre-treatment with L-NAME” value [1] was 1/18, the IC50 [1, 5] was 5500 nM and the IC50 [1, 6] was over 100000 nM.
Work on `O=c1[nH]nc(OCCC(O)c2ccc(Cl)cc2)c(NCc2cccnc2)c1Br` (stereo not drawn) [Compound B, 4-bromo-6-[3-(4-chlorophenyl)-3-hydroxypropoxy]-5-(3-pyridylmethylamino)-3(2H)-pyridazinone hydrochloride] yielded an IC50 [1, 5] of 1590 nM.
For `Cl.O=c1[nH]nc(OCCCc2ccc(Cl)cc2)c(NCc2cccnc2)c1Br` [Compound A, 4-bromo-6-[3-(4-chlorophenyl)propoxy]-5-(3-pyridylmethylamino)-3(2H)-pyridazinone hydrochloride], the intracavernous pressure ([2]; intracavernous injection 0.243 to 72.9 µg/body (10^-6 to 3 × 10^-4 mol/L), after SNP) was “increased intracavernous pressure, nearly dose-dependently”, the “dose with significant effects on duration of intracavernous pressure” value [2, 7] was at least 2.43 µg/body and the “dose with significant effects on maximum rate of change of intracavernous pressure” value [2, 7] was at least 2.43 µg/body. The “attenuation of action by pre-treatment with L-NAME” value [1] was “about one-half”, the IC50 [1, 5] was 330 nM and the IC50 [1, 6] was 770 nM. For the same compound, the IC50 ([1]; pre-treatment with SNP (1 nmol/L)) was 150 nM, the “enhancement of action by pre-treatment with SNP” value ([1]; SNP (1 nmol/L)) was “about two-fold” and the “action on the cavernous body relative to that on the aorta” value ([3]; IC50 aorta compared with IC50 corpus cavernosum) was “about 8 times”. For the same compound, the IC50 ([3]; aorta, pre-treatment with SNP (1 nmol/L)) was 2710 nM, the IC50 ([3]; direct relaxation, norepinephrine 1 µmol/L contraction, aorta) was 2650 nM and the relaxation action ([3]; aorta, cumulative administration) was “dose-dependent relaxation action”. For the same compound, the “effect of pre-treatment with SNP on action” value ([3]; aorta, SNP (1 nmol/L)) was “completely unaffected”, the “action on the heart relative to the action on the corpus cavernosum” value (right atrium preparation) was “less than 1/90” and the “EC30 Heart rate” value (right atrium preparation; hydrochloride) was over 30000 nM. The “EC30 Papillary muscle contraction force” value ([4]; hydrochloride) was over 30000 nM.
With `Cc1[nH]c(=O)c(C#N)cc1-c1ccncc1` [Milrinone, milrinone, reference compound] the IC50 [1, 5] was 5800 nM, the “action on the heart relative to the action on the corpus cavernosum” value (right atrium preparation) was “about 1/2” and the “EC30 Heart rate” value (right atrium preparation) was 11700 nM. The “EC30 Papillary muscle contraction force” value [4] was 33900 nM.
